# Experimental data: patent US11286256B2, “Bicyclic inhibitors of histone deacetylase” (Alkermes, Inc., priority 2017, dated 2022)
# Biological target: T1, HDAC1 (Homo sapiens, UniProt Q13547)
# T1 construct: purchased BPS Bioscience
# Assay: HDAC1 recombinant enzymatic assay
# Assay type: biochemical
# Details: 5 h pre-incubation, 5 nM enzyme; read-out: HDAC recombinant enzymatic IC50 HDAC1
# Protocol: (§1) The following describes an assay protocol for measuring the deacetylation of a peptide substrate by the enzymes HDAC2 or HDAC1.
# (§2) All recombinant human HDACs were purchased from BPS Bioscience. The substrate, FAM-TSRHK(AC)KL-CONH, was synthesized at NanoSyn. Final assay reactions contained 100 mM HEPES (pH 7.5), 50 mM KCl, 0.1% BSA, 0.01% Triton X-100, 1% DMSO, 1 uM substrate and 5 nM HDAC enzyme. Enzyme and compounds were pre-incubated at 25° C. for 5 hours and reactions were initiated by addition of substrate. 10 uL reactions were incubated for 17 hours at 25° C. and terminated by the addition of 40 uL of buffer containing 100 mM HEPES (pH 7.5), 0.1% BSA, 0.01% Triton X-100 and 0.05% SDS. Substrate and product peptides present in each sample were separated electrophoretically using the LabChip 3000 capillary electrophoresis instrument. Change in the relative fluorescence intensity of the substrate and product peaks reflects enzyme activity. Reaction progress was determined as the product to sum ratio (PSR):P/(S+P), where P is the peak height of the product peptide and S is the peak height of the substrate peptide. Reactions were performed in duplicate at 12 concentrations, (3× serial dilutions starting at 30 uM). IC50 values were calculated using a 4 Parameter Logistic Model.
# T1 sequence (Q13547 whole entry): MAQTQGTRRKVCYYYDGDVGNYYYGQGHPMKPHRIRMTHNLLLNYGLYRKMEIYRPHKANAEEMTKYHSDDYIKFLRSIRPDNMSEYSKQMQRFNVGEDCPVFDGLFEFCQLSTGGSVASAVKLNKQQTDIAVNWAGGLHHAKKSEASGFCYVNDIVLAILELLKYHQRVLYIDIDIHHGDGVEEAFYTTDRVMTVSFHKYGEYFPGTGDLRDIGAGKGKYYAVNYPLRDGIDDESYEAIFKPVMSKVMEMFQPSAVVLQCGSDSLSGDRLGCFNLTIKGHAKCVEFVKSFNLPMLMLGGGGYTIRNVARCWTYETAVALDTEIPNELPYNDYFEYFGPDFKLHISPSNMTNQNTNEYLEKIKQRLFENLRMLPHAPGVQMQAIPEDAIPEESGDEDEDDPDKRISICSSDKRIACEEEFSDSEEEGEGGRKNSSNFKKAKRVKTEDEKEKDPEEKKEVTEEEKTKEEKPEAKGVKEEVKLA
row,IC50 [nM],SMILES
1,27,Nc1ccc(-c2ccc(F)cc2)cc1NC(=O)N1Cc2nccnc2C1 [Comparator A]
2,119,Nc1ccc(-c2ccc(F)cc2)nc1NC(=O)N1Cc2nccnc2C1 [Comparator B]
3,95,Nc1ccc(-c2cccs2)nc1NC(=O)N1Cc2nccnc2C1 [Comparator C]
4,239,Nc1ccc(-c2ccc(F)cc2)nc1NC(=O)N1Cc2cncnc2C1 [Comparator D]
5,142,Nc1ccc(-c2cccs2)nc1NC(=O)N1Cc2cncnc2C1 [Comparator E]
6,326,COCc1cc2c(cn1)CN(C(=O)Nc1nc(-c3ccc(F)cc3F)ccc1N)C2 [Compound 1]
7,133,Cc1ncc2c(n1)CN(C(=O)Nc1nc(-c3cccs3)ccc1N)C2 [Compound 2]

# System: human myeloid progenitors (CFU-GM)
# Assay: Myeloid CFU assay in human bone marrow cells
# Assay type: cell-based
# Details: 10 μM, 14 days culture, human bone marrow cells
# Protocol: Compounds were tested to evaluate the potential effects on human erythroid and myeloid progenitors using colony forming cell assays. Clonogenic progenitors of human erythroid (CFU-E, BFU-E), granulocyte-monocyte (CFU-GM) and multipotential (CFU-GEMM) lineages were assessed in a semi-solid methylcellulose-based media formulation containing rhlL-3 (10 ng/mL), rhGM-SCF (10 ng/mL), rhSCF (50 ng/mL) and Epo (3 U/mL).
# Normal human bone marrow light density cells derived from normal bone marrow (NorCal Biologics, California) and qualified at ReachBio, were stored in the gaseous phase of liquid nitrogen (−152° C.) until required for the assay. On the day of the experiment, the cells were thawed rapidly, the contents of each vial was diluted in 10 mL of Iscove's modified Dulbecco's medium containing 10% fetal bovine serum (IMDM+10% FBS) and washed by centrifugation (approximately 1200 r.p.m. for 10 minutes, room temperature). The supernatant was discarded and the cell pellets resuspended in a known volume of IMDM+10% FBS. A cell count (3% glacial acetic acid) and viability assessment (trypan blue exclusion test) was performed for the bone marrow sample.
# On the day of the experiment, the compounds were dissolved in DMSO to a stock concentration of 10 mM. Serial dilutions were prepared from the stock concentration to achieve concentrations of 2 and 0.4 mM. When added to the methylcellulose-based media at 1:1000 (v/v), the final test concentrations of 10, 2 and 0.4 μM were achieved. Additionally, 5-FU was evaluated at 1.0, 0.1 and 0.01 μg/mL.
# Clonogenic progenitors of the human erythroid (CFU-E and BFU-E) and myeloid (CFU-GM) lineages were set up in the methylcellulose-based media formulations described above. All compounds were added to the medium to give the final desired concentrations (10, 2 and 0.4 μM). 5-Fluorouracil (Sigma Aldrich) was used as a positive control for progenitor proliferation (inhibition of colony growth) and was introduced to the human bone marrow cultures at 1.0, 0.1, and 0.01 μg/mL. Solvent control cultures (containing no compound but 0.1% DMSO) as well as standard controls (containing no compound and no DMSO) were also initiated.
# Human myeloid and erythroid progenitor assays were initiated at 2.0×10^4 cells per culture. Following 14 days in culture, myeloid and erythroid colonies were assessed microscopically and scored by trained personnel. The colonies were divided into the following categories based on size and morphology: CFU-E, BFU-E, CFU-GM and CFU-GEMM.
# The mean±one standard deviation of three replicate cultures was calculated for progenitors of each category (CFU-E, BFU-E, etc.). Two-tailed t-tests were performed to assess if there was a difference in the number of colonies generated between solvent control and treated cultures. Due to the potential subjectivity of colony enumeration, a p value of less than 0.01 is deemed significant. To calculate the concentration of 50% inhibition of colony growth (IC50) for each compound, a dose response curve was generated plotting the log of the compound concentration versus the percentage of control colony growth using XLfit software (IDBS). The concentration of 50% inhibition of colony growth (IC50) was calculated based on the sigmoid curve fit using Dose-Response, One-Site Model formula: y=A+[(B−A)/(1+((C/x)^D))], where A=the initial value (baseline response), B=maximum response, C=center (drug concentration that provokes a response halfway between A and B) and D=slope of the curve at midpoint. Further, plots and additional dose response curves were generated using GraphPad Prism 7.0.
# Erythroid (CFU-E and BFU-E), myeloid (CFU-GM) and multi-potential (CFU-GEMM) colony enumeration was performed by trained personnel. The distribution of colony types as well as general colony and cellular morphology was analyzed. For statistical analysis colony numbers in compound treated cultures were compared to the solvent control cultures. […]
row,CFU % Control remaining @ 10 μM Myeloid [%],SMILES
1,0,Nc1ccc(-c2ccc(F)cc2)cc1NC(=O)N1Cc2nccnc2C1 [Comparator A]
2,25,Nc1ccc(-c2ccc(F)cc2)nc1NC(=O)N1Cc2nccnc2C1 [Comparator B]
3,20,Nc1ccc(-c2cccs2)nc1NC(=O)N1Cc2nccnc2C1 [Comparator C]
4,84,Nc1ccc(-c2ccc(F)cc2)nc1NC(=O)N1Cc2cncnc2C1 [Comparator D]
5,83,Nc1ccc(-c2cccs2)nc1NC(=O)N1Cc2cncnc2C1 [Comparator E]
6,86,COCc1cc2c(cn1)CN(C(=O)Nc1nc(-c3ccc(F)cc3F)ccc1N)C2 [Compound 1]
7,59,Cc1ncc2c(n1)CN(C(=O)Nc1nc(-c3cccs3)ccc1N)C2 [Compound 2]

# Biological target: T2, HDAC2 (Homo sapiens, UniProt Q92769)
# Assay: HDAC2 enzymatic inhibition assay in SY5Y cell lysate with HDAC-Glo2 substrate
# Assay type: cell-based
# Set-up: host or cells: SH-SY5Y
# Details: SH-SY5Y cells, 5 h compound incubation, HDAC-Glo 2 reagent
# Protocol: HDAC2 Enzymatic Inhibition Assay in SY5Y Cell Lysate with HDAC-Glo2 Substrate
# SH-SY5Y cells (Sigma) were cultured in Eagle's Modified Essential Medium supplemented with 10% fetal bovine serum and pen/strep. Twenty-four hours prior to compound dosing 20 uL of cells were plated in white 384 well plates at a density of 1,500 cells/well. Compounds were serially diluted in neat DMSO and then diluted 1:100 v/v into media without FBS and mixed. Media was removed from the plated cells and the diluted compounds in serum free media (1% v/v final DMSO) were added and incubated at 37.0 for five hours. Ten uL of HDAC-Glo 2 reagent with 0.1% Triton X-100 was then added, the plate was mixed and allowed to develop at room temperature for 100 minutes. Plates were then read with a Spectramax LMax luminometer employing a 0.4 s integration time. Dose response curves were constructed with normalized data where CI-994 at 100 uM was defined as 100% inhibition and DMSO alone as 0% inhibition.
# T2 sequence (Q92769 whole entry): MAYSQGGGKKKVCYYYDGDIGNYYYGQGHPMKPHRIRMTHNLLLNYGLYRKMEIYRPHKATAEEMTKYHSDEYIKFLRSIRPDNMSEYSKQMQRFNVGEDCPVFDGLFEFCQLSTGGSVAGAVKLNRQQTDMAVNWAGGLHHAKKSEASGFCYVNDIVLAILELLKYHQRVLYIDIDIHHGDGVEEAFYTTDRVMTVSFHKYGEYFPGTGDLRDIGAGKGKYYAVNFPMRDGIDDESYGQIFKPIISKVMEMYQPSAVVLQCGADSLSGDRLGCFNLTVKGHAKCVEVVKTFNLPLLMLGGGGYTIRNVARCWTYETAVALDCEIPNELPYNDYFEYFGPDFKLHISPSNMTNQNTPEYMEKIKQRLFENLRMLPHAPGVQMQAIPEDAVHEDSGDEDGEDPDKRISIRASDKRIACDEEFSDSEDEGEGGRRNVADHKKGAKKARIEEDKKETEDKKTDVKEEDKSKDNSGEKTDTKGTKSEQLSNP
row,IC50 [nM],SMILES
1,369,Nc1ccc(-c2ccc(F)cc2)cc1NC(=O)N1Cc2nccnc2C1 [Comparator A]
2,485,Nc1ccc(-c2ccc(F)cc2)nc1NC(=O)N1Cc2nccnc2C1 [Comparator B]
3,279,Nc1ccc(-c2cccs2)nc1NC(=O)N1Cc2nccnc2C1 [Comparator C]
4,331,Nc1ccc(-c2ccc(F)cc2)nc1NC(=O)N1Cc2cncnc2C1 [Comparator D]
5,278,Nc1ccc(-c2cccs2)nc1NC(=O)N1Cc2cncnc2C1 [Comparator E]
6,777,COCc1cc2c(cn1)CN(C(=O)Nc1nc(-c3ccc(F)cc3F)ccc1N)C2 [Compound 1]
7,577,Cc1ncc2c(n1)CN(C(=O)Nc1nc(-c3cccs3)ccc1N)C2 [Compound 2]

# Biological target: T2, HDAC2
# Assay: HDAC2 recombinant enzymatic assay
# Assay type: biochemical
# Set-up: purchased BPS Bioscience
# Details: 5 h pre-incubation, 5 nM enzyme; read-out: HDAC recombinant enzymatic IC50 HDAC2
# Protocol: as §1, §2
row,IC50 [nM],SMILES
1,142,Nc1ccc(-c2ccc(F)cc2)cc1NC(=O)N1Cc2nccnc2C1 [Comparator A]
2,475,Nc1ccc(-c2ccc(F)cc2)nc1NC(=O)N1Cc2nccnc2C1 [Comparator B]
3,301,Nc1ccc(-c2cccs2)nc1NC(=O)N1Cc2nccnc2C1 [Comparator C]
4,627,Nc1ccc(-c2ccc(F)cc2)nc1NC(=O)N1Cc2cncnc2C1 [Comparator D]
5,511,Nc1ccc(-c2cccs2)nc1NC(=O)N1Cc2cncnc2C1 [Comparator E]
6,510,COCc1cc2c(cn1)CN(C(=O)Nc1nc(-c3ccc(F)cc3F)ccc1N)C2 [Compound 1]
